# Tests used:
# [1] = test system: C57BL6 mice; test: Intratumoral injection of luciferase mRNA LNP, fluorescence of tumor and liver; assay type: in vivo; details: luciferase mRNA LNP 25 μL/2.5 μg intratumoral, B 16F 10 tumor in C57BL6 mice, imaging after 24 h (FIGS. 6 and 7)
# Experimental: Different types of lipid nanoparticles encapsulating luciferase mRNA in were prepared accordance with the preparation of Example 20. Tumors were injected subcutaneously in the right abdomen of 6-8 week female C57BL6 mice at 5×10^5 B 16F 10 cells (from CAS Cell Bank, CSTR:19375.09.3101MOUTCM36)/mouse, and tumor growth was observed and recorded periodically. On the 8th day after tumor inoculation, the length (L, mm) and width (D, mm) of the tumors were measured by using a vernier caliper, and the tumor volume (V) was calculated according to the formula V=(L×D^2)/2. Mice with tumor volume in the range of 80-120 mm^3 were taken and randomly grouped, and intratumorally injected with different types of lipid nanoparticles encapsulating luciferase mRNA at the volume of 25 μL/2.5 μg. Anatomical imaging was performed after 24 h to detect the fluorescence intensity of the mouse liver and tumor (as shown in FIGS. 6 and 7). […] This indicates better in situ tumor expression and lower liver […], which is suitable for encapsulation and delivery of some tumor therapy-related nucleic acid drugs.
# [2] = Particle size, PDI and zeta potential of mRNA-loaded lipid nanoparticles (Malvern Zetasizer nano); assay type: physicochemical
# Experimental: (§1) Luciferase mRNA was diluted in 10-100 mM citrate buffer at pH 4.0; the lipid components (cationic lipids shown in the present disclosure: DSPC:cholesterol:PEG lipids (DMG-PEG2000)) were dissolved in ethanol at a molar ratio of 50:10:38.5:1.5.
# (§2) 3 mL of a mRNA buffer and 1 mL of a lipid solution were loaded into two 5 mL syringes respectively, and the syringes were installed on a microfluidic syringe pump. Chips were connected to the syringes and syringe pump flow rate was set. Clicking the start button of the syringe pump caused injection into the chip at a flow rate ratio of 3:1. Under observation of the color of the product at the exit of the chip, after discarding the first 5 milky white droplets (about 100 μL), the back-end sample was collected into an EP tube. The collected product was placed in a dialysis bag and dialyzed for 6 h (MWCO: 100 KDa) in 10 mM PBS (pH 7.4) intervals. Subsequently, after being concentrated by ultrafiltration to the desired concentration, the lipid nanoparticles were filtered through a 0.22 μm sterile filter and then stored at 4° C.
# (§3) Tests were performed to calculate the encapsulation rate of the products according to the instructions of Ribogreen kit. Particle size and polydispersity index (PDI) detection as well as zeta potential analysis was performed on a Malvern Zetasizer nano instrument using standard assays.
# [3] = test system: BALB/c mice; test: In vivo expression of luciferase mRNA delivered by LNP, tail intravenous injection, small animal imaging; details: Table 3, 5 μg mRNA, female BALB/c mice, DLin-MC3-DMA = 100
# Experimental: LUC-mRNA-lipid nanoparticles containing 5 μg mRNA (see SEQ ID NO: 1 in the Patent Application Publication CN114380724A for the corresponding nucleotide sequence of LUC-mRNA) were injected via tail intravenous injection in 6-8 week old female BALB/c mice, prepared as in Example 19. 100 μg of D-Luciferin Potassium Salt was injected via tail intravenous injection into the mice at specific time points and assayed using the PerkinElmer Small Animal Imaging System. Fluc is commonly used in mammalian cell cultures to measure gene expression and cell viability, and it emits biological fluorescent light in the presence of the substrate […]. The basic characteristics of the mRNA used include ARCA cap structure, polyA tail length of 120 nt, and complete substitution of pseudouridine.
# The effect of delivering luciferase mRNA using more cationic lipids were validated according to the methods of Example 20 and Example 21.
# [4] = Encapsulation rate of mRNA-loaded lipid nanoparticles (Ribogreen kit); assay type: physicochemical
# Experimental: as §1, §2, §3
# [5] = test system: BALB/c mice; test: Novel coronavirus mRNA vaccine delivered by LNP, intramuscular immunization, binding antibody titer by ELISA; details: mouse, in vivo
# [6] = Encapsulation rate of mRNA-loaded lipid nanoparticles (Ribogreen kit); assay type: physicochemical; remark: listed apart in the source
# [7] = Particle size, PDI and zeta potential of mRNA-loaded lipid nanoparticles (Malvern Zetasizer nano); assay type: physicochemical; remark: listed apart in the source
# [8] = test system: BALB/c mice; test: In vivo EPO protein expression after tail i.v. injection of EPO-mRNA LNP, serum ELISA; details: 6 hours after tail i.v. injection of 20 μg EPO-mRNA-lipid nanoparticles, female Balb/c mice
# Experimental: In the example, the effects of in vivo transfection of erythropoietin (EPO) by various cationic liposomes were compared. Nanoparticles were prepared in the same manner as in Example 20, and the nucleotide sequence corresponding to the EPO mRNA used is given in CN114380724B, SEQ ID NO:2. After preparation, 20 μg of EPO-mRNA-lipid nanoparticles were injected via tail intravenous injection in 6-8 week female Balb/c mice. 6 hours later the mice were subjected to blood sampling from the eye frame. After centrifugation to separate the serum, EPO protein expression was determined using ELISA. The basic characteristics of the mRNA used include ARCA cap structure, polyA tail length of 100-120 nt, and complete substitution of pseudouridine.
# [9] = Table 1, Luciferase mRNA LNP, cationic lipid:DSPC:cholesterol:DMG-PEG2000 50:10:38.5:1.5 molar
# [10] = Table 3 batch, luciferase mRNA LNP prepared as Example 20
# [11] = Table 2 No. 1, Luc mRNA LNP, Compound 35/DMG-PEG2000/DSPC/cholesterol 55/2.5/22/20.5 molar, N/P 5
# [12] = Table 2 No. 2, Luc mRNA LNP, Compound 35/DMG-PEG2000/DSPC/cholesterol 45/1.5/22/31.5 molar, N/P 10
# [13] = Table 2 No. 3, Luc mRNA LNP, Compound 35/DMG-PEG2000/DSPC/cholesterol 45/2.5/8/44.5 molar, N/P 5
# [14] = Table 2 No. 4, Luc mRNA LNP, Compound 35/DMG-PEG2000/DSPC/cholesterol 45/1.5/8/45.5 molar, N/P 10
# [15] = Table 2 No. 5, Luc mRNA LNP, Compound 35/DMG-PEG2000/DSPC/cholesterol 50/1.5/15/33.5 molar, N/P 7.5
# [16] = Table 2 No. 6, Luc mRNA LNP, Compound 35/DMG-PEG2000/DSPC/cholesterol 55/1.5/15/28.5 molar, N/P 10
# [17] = Table 2 No. 7, Luc mRNA LNP, Compound 35/DMG-PEG2000/DOPE/cholesterol 55/2.5/22/20.5 molar, N/P 5
# [18] = Table 2 No. 8, Luc mRNA LNP, Compound 35/DMG-PEG2000/DOPE/cholesterol 45/1.5/22/31.5 molar, N/P 10
# [19] = Table 2 No. 9, Luc mRNA LNP, Compound 35/DMG-PEG2000/DOPE/cholesterol 45/2.5/8/44.5 molar, N/P 5
# [20] = Table 2 No. 10, Luc mRNA LNP, Compound 35/DMG-PEG2000/DOPE/cholesterol 45/1.5/8/45.5 molar, N/P 10
# [21] = Table 2 No. 11, Luc mRNA LNP, Compound 35/DMG-PEG2000/DOPE/cholesterol 50/1.5/15/33.5 molar, N/P 7.5
# [22] = Table 2 No. 12, Luc mRNA LNP, Compound 35/DMG-PEG2000/DOPE/cholesterol 55/1.5/15/28.5 molar, N/P 10
# [23] = Table 4 batch, EPO mRNA LNP prepared as Example 20
smiles,measurement,setting,value
CCCCCCCCSCC(C)C(=O)OCCCCCN(CCO)CCCCCCCC(=O)OC(CCCCCCCC)CCCCCCCC (stereo not drawn) [Compound 35],brightness (fluorescence intensity) at the tumor,[1],higher brightness at the tumor
same,brightness (fluorescence intensity) in the liver,[1],lower brightness in the liver
same,PDI,[2]; [9],0.11
same,Particle size (nm),[2]; [9],104.5 nm
same,Zeta potential (mV),[2]; [9],−2.10 mV
same,PDI,[2]; [10],0.14
same,Particle size (nm),[2]; [10],80.4 nm
same,relative fluorescence intensity (%),[3],962 ± 78%
same,Encapsulation rate (%),[4]; [9],90.4%
same,Encapsulation rate (%),[4]; [10],96.2%
same,binding antibody titer,[5],1.4 million
same,Encapsulation rate (%),[6]; [11],85.78%
same,Encapsulation rate (%),[6]; [12],96.98%
same,Encapsulation rate (%),[6]; [13],97.38%
same,Encapsulation rate (%),[6]; [14],96.70%
same,Encapsulation rate (%),[6]; [15],96.10%
same,Encapsulation rate (%),[6]; [16],94.46%
same,Encapsulation rate (%),[6]; [17],90.26%
same,Encapsulation rate (%),[6]; [18],94.11%
same,Encapsulation rate (%),[6]; [19],94.62%
same,Encapsulation rate (%),[6]; [20],96.36%
same,Encapsulation rate (%),[6]; [21],92.54%
same,Encapsulation rate (%),[6]; [22],96.16%
same,Encapsulation rate (%),[6]; [23],96.1%
same,PDI,[7]; [11],0.193
same,Particle size (nm),[7]; [11],100.5 nm
same,PDI,[7]; [12],0.121
same,Particle size (nm),[7]; [12],98.13 nm
same,PDI,[7]; [13],0.138
same,Particle size (nm),[7]; [13],70.02 nm
same,PDI,[7]; [14],0.121
same,Particle size (nm),[7]; [14],98.19 nm
same,PDI,[7]; [15],0.051
same,Particle size (nm),[7]; [15],85.09 nm
same,PDI,[7]; [16],0.122
same,Particle size (nm),[7]; [16],93.83 nm
same,PDI,[7]; [17],0.169
same,Particle size (nm),[7]; [17],145.0 nm
same,PDI,[7]; [18],0.205
same,Particle size (nm),[7]; [18],114.9 nm
same,PDI,[7]; [19],0.173
same,Particle size (nm),[7]; [19],92.41 nm
same,PDI,[7]; [20],0.233
same,Particle size (nm),[7]; [20],113.7 nm
same,PDI,[7]; [21],0.155
same,Particle size (nm),[7]; [21],140.2 nm
same,PDI,[7]; [22],0.190
same,Particle size (nm),[7]; [22],129.1 nm
same,PDI,[7]; [23],0.12
same,Particle size (nm),[7]; [23],79.1 nm
same,EPO concentration,[8],5.73e+07 pg/mL

# Reference: patent US12325676B2, “Cationic lipid compound and composition for delivery of nucleic acids and use thereof” (Shenzhen Rhegen Biotechnology Co., Ltd., priority 2022, dated 2025)
